{"source": "paper PMC8954214", "about": "“Preparation, Identification, Molecular Docking Study and Protective Function on HUVECs of Novel ACE Inhibitory Peptides from Protein Hydrolysate of Skipjack Tuna Muscle” (Marine Drugs, 2022)", "key": {"HUVECs [1]": {"system": "HUVECs", "conditions": "cited from earlier work", "text": "Among these peptides, ACEi peptides represent a promising alternative to synthetic drugs to control hypertension. For instance, canary seed peptides (CSP) have great potential as anti-hypertensive and anti-obesity agents due to their inhibition activity on ACE and pancreatic lipase, and their non-competitive inhibitory activity was due to their destabilization of the transition state and Zn(II) coordination in ACE [13]. Noncompetitive ... || NO can antagonize the vascular tone function of angiotensin II by down-regulating the synthesis of ang II type 1 receptor and ACE, which is further involved in regulating the peripheral and central function of the cardiovascular system and exerts vasoprotective effects. […] Therefore, the deficiency of NO will increase the risks of cardiovascular in pathologic situations, and improving endothelial NO production represents reasonable therapeutic strateg ..."}, "ACE": {"biological_target": "T1, ACE (Oryctolagus cuniculus, UniProt P12822)", "T1 construct": "purchased Sigma-Aldrich (Shanghai) Trading Co., Ltd. A6778", "T1 sequence (P12822 34-1310)": "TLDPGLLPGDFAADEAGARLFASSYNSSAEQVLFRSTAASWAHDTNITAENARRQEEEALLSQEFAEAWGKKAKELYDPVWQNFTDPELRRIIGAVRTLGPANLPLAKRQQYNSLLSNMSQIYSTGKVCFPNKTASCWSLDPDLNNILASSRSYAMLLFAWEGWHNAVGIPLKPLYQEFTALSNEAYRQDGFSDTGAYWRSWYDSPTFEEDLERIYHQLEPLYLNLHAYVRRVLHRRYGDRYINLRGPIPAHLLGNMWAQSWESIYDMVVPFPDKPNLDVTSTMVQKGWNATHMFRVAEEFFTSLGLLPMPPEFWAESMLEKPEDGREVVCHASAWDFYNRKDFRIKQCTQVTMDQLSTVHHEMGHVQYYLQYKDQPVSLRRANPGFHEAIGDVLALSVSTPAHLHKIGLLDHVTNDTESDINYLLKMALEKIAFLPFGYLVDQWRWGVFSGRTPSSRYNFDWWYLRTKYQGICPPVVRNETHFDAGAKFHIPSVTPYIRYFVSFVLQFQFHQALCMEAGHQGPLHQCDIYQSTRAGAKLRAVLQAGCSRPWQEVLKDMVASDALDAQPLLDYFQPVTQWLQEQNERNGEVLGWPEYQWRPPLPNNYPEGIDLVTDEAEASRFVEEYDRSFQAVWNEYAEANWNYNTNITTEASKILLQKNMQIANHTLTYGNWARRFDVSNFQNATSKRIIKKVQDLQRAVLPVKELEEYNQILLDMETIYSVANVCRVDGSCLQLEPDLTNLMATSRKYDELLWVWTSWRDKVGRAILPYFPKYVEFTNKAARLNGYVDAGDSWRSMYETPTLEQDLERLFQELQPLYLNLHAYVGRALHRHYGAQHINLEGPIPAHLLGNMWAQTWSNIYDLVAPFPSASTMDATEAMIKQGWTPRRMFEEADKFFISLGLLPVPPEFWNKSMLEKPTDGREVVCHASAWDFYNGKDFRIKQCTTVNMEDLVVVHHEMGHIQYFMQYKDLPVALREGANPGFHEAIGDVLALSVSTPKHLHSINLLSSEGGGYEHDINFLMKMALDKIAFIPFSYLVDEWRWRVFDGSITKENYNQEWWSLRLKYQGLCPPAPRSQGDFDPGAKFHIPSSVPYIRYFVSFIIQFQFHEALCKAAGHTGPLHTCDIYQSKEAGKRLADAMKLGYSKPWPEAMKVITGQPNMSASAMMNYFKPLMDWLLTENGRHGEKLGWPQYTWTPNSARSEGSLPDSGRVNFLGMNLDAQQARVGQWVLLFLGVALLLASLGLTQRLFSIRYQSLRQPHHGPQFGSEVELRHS", "conditions": "from Ruditapes philippinarum; cited from earlier work", "text": "Among these peptides, ACEi peptides represent a promising alternative to synthetic drugs to control hypertension. For instance, canary seed peptides (CSP) have great potential as anti-hypertensive and anti-obesity agents due to their inhibition activity on ACE and pancreatic lipase, and their non-competitive inhibitory activity was due to their destabilization of the transition state and Zn(II) coordination in ACE [13]. […] Auwal et al. illustrated that branched aliphatic or dicarboxylic amino acids (Val, Ala, Ile, and Leu) at the N-terminus could strengthen ACEi ability of peptides. Then, Val residue at the N-terminus of TMAP2 could improve its ACEi ability. […] Therefore, Ser residue, especially its hydroxyl group, should play a vital effect in the ACEi capability of ..."}, "systolic blood pressure": {"system": "systolic blood pressure", "conditions": "single blood pressure test; cited from earlier work", "text": "(§1) Among these peptides, ACEi peptides represent a promising alternative to synthetic drugs to control hypertension. For instance, canary seed peptides (CSP) have great potential as anti-hypertensive and anti-obesity agents due to their inhibition activity on ACE and pancreatic lipase, and their non-competitive inhibitory activity was due to their destabilization of the transition state and Zn(II) coordination in ACE [13]. Noncompetitive ..."}, "ET-1": {"system": "ET-1", "conditions": "cited from earlier work; for ET-1 generation: from R. philippinarum", "text": "as §1, with “... || ET-1 is a known vasoconstriction factor similar to Ang II and is capable of inducing endothelial dysfunction related to atherosclerosis and hypertension.” for “...”"}, "HUVECs [2]": {"system": "HUVECs", "assay": "NO production in HUVECs", "type": "cell-based, human", "conditions": "24 h"}, "HUVECs [3]": {"system": "HUVECs", "assay": "ET-1 secretion of HUVECs", "type": "cell-based, human", "conditions": "24 h", "text": "Skipjack tuna (K. pelamis) muscle was provided by Ningbo Today Food Co., Ltd (China). Sephadex G-25 resins and NO assay kit (Nitrate reductase approach, A012-1) were purchased from Nanjing Jiancheng Bioengineering Institute (China). ET-1 ELISA Kit (HM10108) was purchased from Shanghai Qiaodu Biotechnology Co. Ltd. (China).Trypsase (≥20,000 U/g), pepsase (≥500,000 U/g), papain (≥400,000 U/g), ACE (A6778) and N-[3-(2-Furyl) acryloyl]-Phe-Gly-Gly (FAPGG, F713) were purchased from Sigma-Aldrich (Shanghai) Trading Co., Ltd. (China). […] ACEi Peptides of (TMAP1-TMAP6) with purity higher than 98% were synthesized in Shanghai Apeptide Co. Ltd. (China).\nThe NO and ET-1 contents of HUVECs were determined after a 24 h treatment of ACEi peptides. […] NO and ET-1 production in treated cells were measured by employing human NO and ET-1 assay kit as manufactures’ protocol, separately."}, "HUVECs [4]": {"system": "HUVECs", "assay": "HUVEC viability, MTT assay", "type": "cell-based, human", "conditions": "24 h, 100–400 μM", "procedure": "After thawing, HUVECs were maintained in cultured flasks and cultured to confluence in DMEM containing 1% Penicillin-Streptomycin liquid, supplemented with 10% FBS. HUVECs received the culturing process at 37°C in a humidified 5% CO2 atmosphere.\nThe cell viability of TMAP1 and TMAP2 on HUVECs were assessed using the MTT assay on manufacturer’s instructions. In brief, cells were incubated in 96-well plates at density of 0.8 × 10^4 cells per well with 180 μL completed DMEM. Following a confluency of 50–60% in the 96-well plates, the cells were treated with 20 μL peptides under designed concentrations (100, 200, and 400 μM) and further cultured for 24 h at 37 °C. Subsequently, the cells were added to 20 μL MTT solution (5 mg/mL) and incubated for 4 h. Finally, DMSO was added into each well, and the absorbance (A) at 490 nm was determined. The cell viability was calculated as: Cell viability (%) = (Aexperiment group/Acontrol group) × 100(2)"}, "eNOS": {"system": "eNOS", "conditions": "via Akt pathway; cited from earlier work", "text": "as §1"}}}
{"substance": "GRVSNCAA [ACEi peptide from Ruditapes philippinarum]", "values": [{"measurement": "NO production of HUVEC", "setting": "HUVECs [1]", "result": "increasing the NO production"}, {"measurement": "NO secretion", "setting": "HUVECs [1]", "result": "promote NO secretion"}, {"measurement": "IC50", "setting": "ACE", "result": 57.9, "unit": "µM"}, {"measurement": "mode of ACE inhibition", "setting": "ACE", "result": "Noncompetitive"}, {"measurement": "systolic blood pressure", "setting": "systolic blood pressure", "result": "lower systolic blood pressure"}, {"measurement": "ET-1 production", "setting": "ET-1", "result": "reduced ET-1 production"}, {"measurement": "ET-1 generation", "setting": "ET-1", "result": "significantly lessening ET-1 generation"}]}
{"substance": "H-VDRYF-OH [TMAP2, Val-Asp-Arg-Tyr-Phe]", "values": [{"measurement": "reversal of NE-reduced NO content", "setting": "HUVECs [2]; 200 μM peptide with NE (0.5 μM), p < 0.001 vs NE", "result": "partially offset"}, {"measurement": "NO level", "setting": "HUVECs [2]; 400 μM, control 34.41 ± 1.27, p < 0.001", "result": "51.88 ± 2.16", "unit": "μmol/gprot"}, {"measurement": "NO level vs control group", "setting": "HUVECs [2]; 100, 200 and 400 μM, p < 0.001", "result": "significantly increased"}, {"measurement": "ET-1 secretion with NE", "setting": "HUVECs [3]; 200 μM peptide with NE (0.5 μM), NE alone 140.23 ± 5.81, p < 0.01", "result": "111.78 ± 3.06", "unit": "pg/mL"}, {"measurement": "ET-1 secretion", "setting": "HUVECs [3]; 400 μM, control 118.68 ± 0.53", "result": "92.09 ± 4.58", "unit": "pg/mL"}, {"measurement": "ET-1 secretion vs control group", "setting": "HUVECs [3]; tested concentrations (100–400 μM), p < 0.001 or p < 0.01", "result": "decreased"}, {"measurement": "cell toxicity", "setting": "HUVECs [4]", "result": "did not induce significant cell toxicity"}]}
{"substance": "TYLPVH [ACEi peptide from Ruditapes philippinarum]", "values": [{"measurement": "NO production of HUVEC", "setting": "HUVECs [1]", "result": "increasing the NO production"}, {"measurement": "NO secretion", "setting": "HUVECs [1]", "result": "promote NO secretion"}, {"measurement": "IC50", "setting": "ACE", "result": 1.37, "unit": "µM"}, {"measurement": "mode of ACE inhibition", "setting": "ACE", "result": "Noncompetitive"}, {"measurement": "systolic blood pressure", "setting": "systolic blood pressure", "result": "lower systolic blood pressure"}, {"measurement": "ET-1 production", "setting": "ET-1", "result": "reduced ET-1 production"}, {"measurement": "ET-1 generation", "setting": "ET-1", "result": "significantly lessening ET-1 generation"}]}
{"substance": "KYIPIQ [ACEi peptide found in yak milk casein]", "values": [{"measurement": "NO synthesis in HUVECs", "setting": "HUVECs [1]; via Akt pathway", "result": "promote NO synthesis"}, {"measurement": "expression of phosphorylated eNOS in HUVECs", "setting": "eNOS", "result": "promote NO synthesis and the expression of phosphorylated endothelial NO synthase (eNOS) in HUVECs"}]}
